Measurements: the CheMixHub viscosity set

Assay: xn = mol fraction of the nth substance listed

CC(C)(C)O + CC(C)O
303.2 K, 101.33 kPa
Settings | viscosity [mPa·s]
x2 = 0.05 | 3.297
x2 = 0.1 | 3.237
x2 = 0.15 | 3.172
x2 = 0.2 | 3.101
x2 = 0.3 | 2.931
x2 = 0.4 | 2.75
x2 = 0.5 | 2.572
x2 = 0.6 | 2.396
x2 = 0.7 | 2.224
x2 = 0.8 | 2.059
x2 = 0.85 | 1.979
x2 = 0.9 | 1.9
x2 = 0.95 | 1.831

C1COCCOCCOCCOCCO1 + O
101 kPa
Settings | viscosity [mPa·s]
293.15 K, x1 = 0.0006204 | 1.026
293.15 K, x1 = 0.001402 | 1.056
293.15 K, x1 = 0.00196 | 1.077
293.15 K, x1 = 0.002451 | 1.096
293.15 K, x1 = 0.002972 | 1.116
293.15 K, x1 = 0.003463 | 1.135
298.15 K, x1 = 0.0008458 | 0.9177
298.15 K, x1 = 0.001528 | 0.94
298.15 K, x1 = 0.002266 | 0.9641
298.15 K, x1 = 0.002834 | 0.9822
298.15 K, x1 = 0.003303 | 0.9976
298.15 K, x1 = 0.003773 | 1.013
303.15 K, x1 = 0.0006643 | 0.8159
303.15 K, x1 = 0.001358 | 0.835
303.15 K, x1 = 0.002066 | 0.8548
303.15 K, x1 = 0.003143 | 0.8854
303.15 K, x1 = 0.00351 | 0.8952
303.15 K, x1 = 0.003848 | 0.9049
308.15 K, x1 = 0.0008516 | 0.7393
308.15 K, x1 = 0.001375 | 0.7519
308.15 K, x1 = 0.001712 | 0.7607
308.15 K, x1 = 0.00238 | 0.7764
308.15 K, x1 = 0.003105 | 0.7938
308.15 K, x1 = 0.003675 | 0.8069

NCCN + OCCO
viscosity [mPa·s], 101 kPa
Settings | x1 = 0.0872 | x1 = 0.17 | x1 = 0.2572 | x1 = 0.3496 | x1 = 0.3568 | x1 = 0.4448 | x1 = 0.547 | x1 = 0.6556 | x1 = 0.7623 | x1 = 0.8792
293.15 K | 27.84 | 34.57 | 40.29 | 40.83 | – | 34.13 | 21.71 | 11.54 | 5.764 | 2.87
298.15 K | 22.44 | 27.12 | 31.13 | 31.21 | – | 26.03 | 16.95 | 9.305 | 4.829 | 2.474
303.15 K | 18.11 | 21.75 | 24.48 | 24.17 | 22.85 | 20.15 | – | 7.547 | 4.093 | 2.165
308.15 K | 14.79 | 17.62 | 19.51 | 19.04 | – | 15.91 | 10.76 | – | 3.514 | 1.914
313.15 K | 12.24 | 14.39 | 15.71 | 15.26 | – | 12.72 | 8.758 | 5.248 | 3.031 | 1.715
318.15 K | 10.22 | 11.87 | 12.84 | 12.3 | – | 10.35 | 7.228 | 4.445 | 2.644 | 1.537
323.15 K | 8.597 | 9.828 | 10.57 | 10.09 | – | 8.503 | 6.053 | 3.8 | 2.317 | 1.383

CC(C)(C)O + CS(C)=O
viscosity [mPa·s], 101.3 kPa
Settings | x2 = 0.095 | x2 = 0.1916 | x2 = 0.289 | x2 = 0.3874 | x2 = 0.5132 | x2 = 0.5873 | x2 = 0.6888 | x2 = 0.7916 | x2 = 0.8951
298.15 K | 3.564 | 2.968 | 2.53 | 2.269 | 2.07 | 2.005 | 1.917 | 1.902 | 1.971
303.15 K | 2.644 | 2.111 | 1.808 | 1.608 | 1.479 | 1.459 | 1.531 | 1.568 | 1.719

CC(=O)[O-].CC[N+]1(C)CCOCC1 + O
viscosity [mPa·s], 100 kPa
Settings | x1 = 0.0567 | x1 = 0.0886 | x1 = 0.1794 | x1 = 0.253 | x1 = 0.3334 | x1 = 0.4341 | x1 = 0.4928 | x1 = 0.5718 | x1 = 0.6609 | x1 = 0.7155
298.15 K | 3.5 | 7.01 | 36.6 | 89.4 | 203 | 541 | 671 | 1472 | – | –
303.15 K | 3.03 | 5.93 | 31.9 | 66 | 143 | 347 | 503 | 1093 | – | –
308.15 K | 2.65 | 5.05 | 27 | 50 | 104 | 228 | 383 | 795 | 1969 | –
313.15 K | 2.34 | 4.33 | 22.5 | 38.7 | 78.1 | 150 | 278 | 566 | 1355 | 2266
318.15 K | 2.08 | 3.73 | 18.2 | 30.7 | 59.8 | 123 | 198 | 396 | 908 | 1518
323.15 K | 1.86 | 3.25 | 15 | 24.8 | 46.8 | 92.9 | 144 | 276 | 599 | 971

CCNCC + CCCCCO
viscosity [mPa·s], 100 kPa
Settings | x1 = 0.0806 | x1 = 0.1601 | x1 = 0.236 | x1 = 0.3486 | x1 = 0.4399 | x1 = 0.5596 | x1 = 0.6501 | x1 = 0.7397 | x1 = 0.8494 | x1 = 0.9401
293.15 K | 3.45 | 2.94 | 2.51 | 1.92 | 1.52 | 1.09 | 0.833 | 0.645 | 0.476 | 0.373
303.15 K | 2.61 | 2.22 | 1.87 | 1.43 | 1.12 | 0.79 | 0.618 | 0.496 | 0.386 | 0.323
313.15 K | 2 | 1.7 | 1.43 | 1.09 | 0.847 | 0.594 | 0.47 | 0.38 | 0.317 | 0.28
323.15 K | 1.54 | 1.31 | 1.09 | 0.83 | 0.64 | 0.45 | 0.357 | 0.3 | 0.261 | 0.245

O=S(=O)([O-])[O-].O=S(=O)([O-])[O-].O=S(=O)([O-])[O-].[Fe+3].[Fe+3] + O
323.15 K, 101.3 kPa
Settings | viscosity [mPa·s]
x1 = 0.0012 | 0.617
x1 = 0.0024 | 0.645
x1 = 0.00498 | 0.768
x1 = 0.00789 | 0.982
x1 = 0.0111 | 1.275

COCCOCCOCCO + CCOC(=O)OCC
298.15 K, 101.33 kPa
Settings | viscosity [mPa·s]
x1 = 0.0084 | 0.762
x1 = 0.017 | 0.775
x1 = 0.0385 | 0.809
x1 = 0.0758 | 0.874
x1 = 0.0923 | 0.905
x1 = 0.1232 | 0.967
x1 = 0.1538 | 1.035
x1 = 0.1917 | 1.126
x1 = 0.2331 | 1.242
x1 = 0.2893 | 1.408
x1 = 0.326 | 1.528
x1 = 0.3668 | 1.676
x1 = 0.41 | 1.845
x1 = 0.4336 | 1.944
x1 = 0.4506 | 2.027
x1 = 0.4939 | 2.224
x1 = 0.5117 | 2.316
x1 = 0.5615 | 2.578
x1 = 0.603 | 2.819
x1 = 0.676 | 3.303
x1 = 0.7411 | 3.785
x1 = 0.8077 | 4.364
x1 = 0.8846 | 5.15
x1 = 0.925 | 5.608
